Tests used:
[1] = Biodistribution in male ddY mouse lung administered intravenously and measured at 60 mins postinjection by gamma counter analysis; format: ADME, organism-based; conditions: in vivo, iv, 1 h
[2] = Biodistribution in male ddY mouse heart administered intravenously and measured at 60 mins postinjection by gamma counter analysis; format: ADME, organism-based; conditions: in vivo, iv, 1 h
[3] = Drug uptake in male ddY mouse brain at 41 kBq, iv pretreated with BTF for 10 mins followed by compound administration and measured after 10 mins by gamma counter analysis; format: ADME, organism-based; conditions: in vivo
[4] = Biodistribution in male ddY mouse bone administered intravenously and measured at 30 mins postinjection by gamma counter analysis; format: ADME, organism-based, Bone element; conditions: in vivo, iv, 0.5 h
[5] = Biodistribution in male ddY mouse stomach administered intravenously and measured per organ at 2 mins postinjection by gamma counter analysis; format: ADME, organism-based; conditions: in vivo, iv
[6] = Biodistribution in male ddY mouse blood administered intravenously and measured at 10 mins postinjection by gamma counter analysis; format: ADME, organism-based; conditions: in vivo, iv
[7] = Biodistribution in male ddY mouse stomach administered intravenously and measured per organ at 60 mins postinjection by gamma counter analysis; format: ADME, organism-based; conditions: in vivo, iv, 1 h
[8] = Biodistribution in male ddY mouse liver administered intravenously and measured at 2 mins postinjection by gamma counter analysis; format: ADME, organism-based; conditions: in vivo, iv
[9] = Drug uptake in male ddY mouse hypothalamus at 407 kBq, iv measured for 5 to 10 mins by PET/CT imaging analysis; format: ADME, organism-based; conditions: in vivo, time 5-10 min
[10] = Biodistribution in male ddY mouse heart administered intravenously and measured at 2 mins postinjection by gamma counter analysis; format: ADME, organism-based; conditions: in vivo, iv
[11] = Biodistribution in male ddY mouse heart administered intravenously and measured at 30 mins postinjection by gamma counter analysis; format: ADME, organism-based; conditions: in vivo, iv, 0.5 h
[12] = Biodistribution in male ddY mouse kidney administered intravenously and measured at 10 mins postinjection by gamma counter analysis; format: ADME, organism-based; conditions: in vivo, iv
[13] = Biodistribution in male ddY mouse blood administered intravenously and measured at 2 mins postinjection by gamma counter analysis; format: ADME, organism-based; conditions: in vivo, iv
[14] = Biodistribution in male ddY mouse kidney administered intravenously and measured at 30 mins postinjection by gamma counter analysis; format: ADME, organism-based; conditions: in vivo, iv, 0.5 h
[15] = Biodistribution in male ddY mouse spleen administered intravenously and measured at 10 mins postinjection by gamma counter analysis; format: ADME, organism-based; conditions: in vivo, iv
[16] = Biodistribution in male ddY mouse intestine administered intravenously and measured at 10 mins postinjection by gamma counter analysis; format: ADME, organism-based; conditions: in vivo, iv
[17] = Biodistribution in male ddY mouse kidney administered intravenously and measured at 60 mins postinjection by gamma counter analysis; format: ADME, organism-based; conditions: in vivo, iv, 1 h
[18] = Biodistribution in male ddY mouse stomach administered intravenously and measured per organ at 10 mins postinjection by gamma counter analysis; format: ADME, organism-based; conditions: in vivo, iv
[19] = Biodistribution in male ddY mouse lung administered intravenously and measured at 30 mins postinjection by gamma counter analysis; format: ADME, organism-based; conditions: in vivo, iv, 0.5 h
[20] = Biodistribution in male ddY mouse bone administered intravenously and measured at 10 mins postinjection by gamma counter analysis; format: ADME, organism-based, Bone element; conditions: in vivo, iv
[21] = Biodistribution in male ddY mouse pancreas administered intravenously and measured at 2 mins postinjection by gamma counter analysis; format: ADME, organism-based; conditions: in vivo, iv
[22] = Biodistribution in male ddY mouse lung administered intravenously and measured at 2 mins postinjection by gamma counter analysis; format: ADME, organism-based; conditions: in vivo, iv
[23] = Biodistribution in male ddY mouse stomach administered intravenously and measured per organ at 30 mins postinjection by gamma counter analysis; format: ADME, organism-based; conditions: in vivo, iv, 0.5 h
[24] = Biodistribution in male ddY mouse brain administered intravenously and measured at 10 mins postinjection by gamma counter analysis; format: ADME, organism-based; conditions: in vivo, iv
[25] = Drug accumulation in male CD Sprague-Dawley rat hypothalamus assessed as increase in radioactivity at 40.1 kBq/ml incubated for 1 hrs in presence of BTF by autoradiography analysis; format: ADME, tissue-based
[26] = Drug accumulation in male CD Sprague-Dawley rat cortex assessed as increase in radioactivity at 40.1 kBq/ml incubated for 1 hrs in presence of BTF by autoradiography analysis; format: ADME, tissue-based
[27] = Biodistribution in male ddY mouse intestine administered intravenously and measured at 30 mins postinjection by gamma counter analysis; format: ADME, organism-based; conditions: in vivo, iv, 0.5 h
[28] = Biodistribution in male ddY mouse bone administered intravenously and measured at 60 mins postinjection by gamma counter analysis; format: ADME, organism-based, Bone element; conditions: in vivo, iv, 1 h
[29] = Biodistribution in male ddY mouse pancreas administered intravenously and measured at 60 mins postinjection by gamma counter analysis; format: ADME, organism-based; conditions: in vivo, iv, 1 h
[30] = Drug accumulation in male CD Sprague-Dawley rat amygdala assessed as increase in radioactivity at 40.1 kBq/ml incubated for 1 hrs in presence of BTF by autoradiography analysis; format: ADME, tissue-based
[31] = Biodistribution in male ddY mouse lung administered intravenously and measured at 10 mins postinjection by gamma counter analysis; format: ADME, organism-based; conditions: in vivo, iv
[32] = Biodistribution in male ddY mouse heart administered intravenously and measured at 10 mins postinjection by gamma counter analysis; format: ADME, organism-based; conditions: in vivo, iv
[33] = Biodistribution in male ddY mouse liver administered intravenously and measured at 30 mins postinjection by gamma counter analysis; format: ADME, organism-based; conditions: in vivo, iv, 0.5 h
[34] = Biodistribution in male ddY mouse intestine administered intravenously and measured at 2 mins postinjection by gamma counter analysis; format: ADME, organism-based; conditions: in vivo, iv
[35] = Biodistribution in male ddY mouse brain administered intravenously and measured at 2 mins postinjection by gamma counter analysis; format: ADME, organism-based; conditions: in vivo, iv
[36] = Biodistribution in male ddY mouse brain administered intravenously and measured at 30 mins postinjection by gamma counter analysis; format: ADME, organism-based; conditions: in vivo, iv, 0.5 h
[37] = Biodistribution in male ddY mouse intestine administered intravenously and measured at 60 mins postinjection by gamma counter analysis; format: ADME, organism-based; conditions: in vivo, iv, 1 h
[38] = Biodistribution in male ddY mouse spleen administered intravenously and measured at 30 mins postinjection by gamma counter analysis; format: ADME, organism-based; conditions: in vivo, iv, 0.5 h
[39] = Biodistribution in male ddY mouse spleen administered intravenously and measured at 2 mins postinjection by gamma counter analysis; format: ADME, organism-based; conditions: in vivo, iv
[40] = Biodistribution in male ddY mouse brain administered intravenously and measured at 60 mins postinjection by gamma counter analysis; format: ADME, organism-based; conditions: in vivo, iv, 1 h
[41] = Biodistribution in male ddY mouse bone administered intravenously and measured at 2 mins postinjection by gamma counter analysis; format: ADME, organism-based, Bone element; conditions: in vivo, iv
[42] = Biodistribution in male ddY mouse blood administered intravenously and measured at 30 mins postinjection by gamma counter analysis; format: ADME, organism-based; conditions: in vivo, iv, 0.5 h
[43] = Biodistribution in male ddY mouse pancreas administered intravenously and measured at 10 mins postinjection by gamma counter analysis; format: ADME, organism-based; conditions: in vivo, iv
[44] = Biodistribution in male ddY mouse kidney administered intravenously and measured at 2 mins postinjection by gamma counter analysis; format: ADME, organism-based; conditions: in vivo, iv
[45] = Drug uptake in male ddY mouse locus ceruleus at 407 kBq, iv measured for 5 to 10 mins by PET/CT imaging analysis; format: ADME, organism-based; conditions: in vivo, time 5-10 min
[46] = Biodistribution in male ddY mouse blood administered intravenously and measured at 60 mins postinjection by gamma counter analysis; format: ADME, organism-based; conditions: in vivo, iv, 1 h
[47] = Biodistribution in male ddY mouse pancreas administered intravenously and measured at 30 mins postinjection by gamma counter analysis; format: ADME, organism-based; conditions: in vivo, iv, 0.5 h
[48] = Biodistribution in male ddY mouse liver administered intravenously and measured at 10 mins postinjection by gamma counter analysis; format: ADME, organism-based; conditions: in vivo, iv
[49] = Biodistribution in male ddY mouse liver administered intravenously and measured at 60 mins postinjection by gamma counter analysis; format: ADME, organism-based; conditions: in vivo, iv, 1 h
[50] = Biodistribution in male ddY mouse spleen administered intravenously and measured at 60 mins postinjection by gamma counter analysis; format: ADME, organism-based; conditions: in vivo, iv, 1 h
Homo sapiens = species: Homo sapiens; assay: Selectivity ratio of IC50 for recombinant human OX2R expressed in CHO-S cells to IC50 for recombinant human OX1R expressed in CHO-S cells; format: cell-based; conditions: tested as the 11C-labelled form

Structure (SMILES): C[C@H]1CN(c2nc3ccccc3s2)CCCN1C(=O)c1cc([18F])ccc1-n1nccn1
- Drug uptake [1]: 1.17 % ID/g
- Drug uptake [2]: 0.54 % ID/g
- Drug uptake [3]: Not_active
- Drug uptake [4]: 1.77 % ID/g
- Drug uptake [5]: 1.4 %ID
- Drug uptake [6]: 3.2 % ID/g
- Drug uptake [7]: 1.05 %ID
- Drug uptake [8]: 16.2 % ID/g
- Drug uptake [9]: Active
- Drug uptake [10]: 7.48 % ID/g
- Drug uptake [11]: 1.51 % ID/g
- Drug uptake [12]: 4.99 % ID/g
- Drug uptake [13]: 6.02 % ID/g
- Drug uptake [14]: 3.99 % ID/g
- Drug uptake [15]: 1.87 % ID/g
- Drug uptake [16]: 15.7 % ID/g
- Drug uptake [17]: 1.84 % ID/g
- Drug uptake [18]: 2.16 %ID
- Drug uptake [19]: 2.2 % ID/g
- Drug uptake [20]: 1.4 % ID/g
- Drug uptake [21]: 7.16 % ID/g
- Drug uptake [22]: 8.48 % ID/g
- Drug uptake [23]: 2.39 %ID
- Drug uptake [24]: 0.82 % ID/g
- Drug uptake [25]: Not_active
- Drug uptake [26]: Not_active
- Drug uptake [27]: 28 % ID/g
- Drug uptake [28]: 1.87 % ID/g
- Drug uptake [29]: 0.61 % ID/g
- Drug uptake [30]: Not_active
- Drug uptake [31]: 4.13 % ID/g
- Drug uptake [32]: 3.02 % ID/g
- Drug uptake [33]: 17 % ID/g
- Drug uptake [34]: 4.74 % ID/g
- Drug uptake [35]: 2.98 % ID/g
- Drug uptake [36]: 0.17 % ID/g
- Drug uptake [37]: 34.5 % ID/g
- Drug uptake [38]: 0.66 % ID/g
- Drug uptake [39]: 3.26 % ID/g
- Drug uptake [40]: 0.07 % ID/g
- Drug uptake [41]: 2.69 % ID/g
- Drug uptake [42]: 1.74 % ID/g
- Drug uptake [43]: 3.1 % ID/g
- Drug uptake [44]: 9.76 % ID/g
- Drug uptake [45]: Active
- Drug uptake [46]: 0.64 % ID/g
- Drug uptake [47]: 0.92 % ID/g
- Drug uptake [48]: 28.6 % ID/g
- Drug uptake [49]: 10.8 % ID/g
- Drug uptake [50]: 0.29 % ID/g

Structure (SMILES): COc1ccnc(N2CCC3(CCN(Cc4cn(C)c5ccccc45)C(=O)C3)CC2)n1
- Ratio IC50 (Homo sapiens): 5.6

— ChEMBL document CHEMBL6120977, “Structure-Affinity-Pharmacokinetics Relationships of Novel 18F-Labeled 1,4-Diazepane Derivatives for Orexin 1 Receptor Imaging” (J Med Chem, 2024)
